According to patent US7479497B2, “Use of quinoline derivatives with anti-integrase effect and applications thereof” (priority 2002, dated 2009):

Experiments:
[1] = tested on: viral DNA; test: Quantification of total viral DNA synthesized and of DNA integrated into the host cell genome after infection (Butler et al.); assay type: cell-based; settings: FIG. 1
Protocol: FIG. 1, the quantification of the total viral DNA synthesized 6 hours after infection and the quantity of viral DNA integrated into the genome 8 hours after infection, and
Study of the Quantification of the Total Viral DNA Synthesized and of the DNA Integrated into the Genome of a Host Cell after Infection
The operation described by Butler et al. in Nat. Med. 2001 May; 7 (5): 631-4 is carried out.

[2] = biological target: T1, integrase of HIV-1 (Human immunodeficiency virus type 1 group M subtype B, UniProt P04585); test: Nuclear import test on the integrase of HIV-1 in permeabilized HeLa cells; assay type: cell-based; settings: 30 minutes at 30° C., FIGS. 5 and 6
T1 construct: incubated for 30 minutes at 30° C. with integrase coupled with Cyanine 3 fluorochrome
Protocol: FIGS. 5 and 6 show the quantification of the fluorescence intensity measured in a nuclear import test on the integrase of HIV-1 in permeabilized HeLa cells in the presence or absence of cytoplasmic extracts.
The import tests in FIG. 5 were carried out as described in Depienne et al. 2001. HeLa cells were permeabilized with Digitonin, then incubated for 30 minutes at 30° C. with integrase coupled with Cyanine 3 fluorochrome in the presence of energy, in the absence of cytosolic extracts and in the presence or absence of increasing concentrations of different molecules as indicated. The cells were then fixed, analyzed by epifluorescence microscopy and acquisitions were carried out with a CCD camera.
For each condition, the fluorescence intensity per surface unit was quantified in 150 to 300 nuclei originating from 3 independent experiments.
The data of FIGS. 6 and 7 were obtained as follows: HeLa cells were permeabilized with digitonin, then incubated for 30 minutes at 30° C. with integrase conjugated to Cyanine 3 fluorochrome and with bovine serum albumin (BSA) conjugated to the standard nuclear localization signal of the T antigen of the SV40 virus (NLS) and with fluorescein (BSA-NLS), in the presence of cytosolic extracts and energy and in the presence or in the absence of increasing concentrations of different molecules as indicated. […]

[3] = tested on: virus; settings: integrase mutations at V165 and V249, and at C280 for a second virus
[4] = biological target: integrase (Human immunodeficiency virus type 1 group M subtype B, UniProt P04585); test: Integrase inhibitor in vitro; assay type: biochemical

Q: What does the source list for `COc1cc(/C=C/c2ccc3ccc(C(=O)[O-])c(O)c3n2)cc(O)c1O.[Na+]` [FZ41, 8-hydroxy-2-[2-[(3,4-dihydroxy,5-methoxyphenyl)ethenyl]]7-quinoline carboxylic acid]?
A: total viral DNA synthesized ([1]; 6 hours after infection): strong reduction; viral DNA integrated into the genome ([1]; 8 hours after infection): strong reduction; nuclear import of integrase (fluorescence in the nuclei of permeabilized cells) [2]: considerably reduce; emergence of resistant viruses [3]: emergence of viruses resistant to the drug; Integrase inhibitor in vitro [4]: YES
